Measurements from a compilation of properties of binary mixtures (doi:10.1016/j.molliq.2021.116805).

Experiment: xn = mol fraction of the nth substance listed
Conditions: 101 kPa

CCCCCCCCCCCCCCCCCC[n+]1ccn(C)c1.O=S(=O)([N-]S(=O)(=O)C(F)(F)F)C(F)(F)F + CCCCCCCCCCCCCC[n+]1ccn(C)c1.O=S(=O)([N-]S(=O)(=O)C(F)(F)F)C(F)(F)F
viscosity (333 K, x2 = 0.7675): 49.6 mPa·s | viscosity (343 K, x2 = 0.7675): 34.8 mPa·s | viscosity (353 K, x2 = 0.7675): 25.4 mPa·s

CCCCCCCCCCCCCC[n+]1ccn(C)c1.O=S(=O)([N-]S(=O)(=O)C(F)(F)F)C(F)(F)F + CCCCCCCCCCCCCCCCn1cc[n+](C)c1.O=S(=O)([N-]S(=O)(=O)C(F)(F)F)C(F)(F)F
viscosity (313 K, x1 = 0.6709): 102.6 mPa·s | viscosity (323 K, x1 = 0.6709): 66.3 mPa·s | viscosity (333 K, x1 = 0.6709): 45.2 mPa·s | viscosity (343 K, x1 = 0.6709): 32 mPa·s | viscosity (353 K, x1 = 0.6709): 23.4 mPa·s

CCCCCCCCCCCCCCCCCC[n+]1ccn(C)c1.O=S(=O)([N-]S(=O)(=O)C(F)(F)F)C(F)(F)F + CCCCCCCCCCCCCCCCn1cc[n+](C)c1.O=S(=O)([N-]S(=O)(=O)C(F)(F)F)C(F)(F)F
viscosity (333 K, x2 = 0.621): 59.3 mPa·s | viscosity (343 K, x2 = 0.621): 41.1 mPa·s | viscosity (353 K, x2 = 0.621): 29.6 mPa·s
